Ends that are not written are not given here.
Experiments:
[1] = system: PGI2 formation in response to intravenous bradykinin; experiment: Urinary PGI-M excretion at rest and after bradykinin infusion, Example 3; format: in vivo, human; conditions: 4 subjects; intravenous 100-800 ng/kg/min
Method: In an additional 4 subjects, we examined the increase in PGI2 formation in response to intravenous bradykinin prior to and following oral aspirin 75 mg or dermal aspirin 750 mg daily for 14 days. The protocol for bradykinin has been described previously [Clark, N.Engl.J.Med 325:1137 (1991)]. Volunteers were admitted after an overnight fast to the Clinical Research Center. Blood samples were obtained for serum TXB2 and the subject asked to void. Through a peripheral vein, 1 liter of normal saline was infused over 1 hour. After a further hour, bradykinin was infused in incremental doses of 100-800 ng/kg/min, each over 15 mm. The infusion was continued at the maximum tolerated dose for a total period of 2 hr. Blood pressure and heart rate were monitored continuously. Urine was collected in separate 2 hr aliquots prior to, during and following the bradykinin infusion.
^1 The excretion of TXM and PGIM before and following dermal aspirin
750 mg/day or oral aspirin 75 mg/day for 10 days. Urine samples were
collected over 2 hr before (rest) and following the administration of […]

[2] = system: PGI2 formation in response to intravenous bradykinin; conditions: on average; cited from earlier work

RPPGFSPFR [bradykinin]
Increase in PGI-M excretion induced by bradykinin [1]: 5.1±6 fold | Increase in PGI2 biosynthesis by bradykinin, previous studies [2]: 2-6 fold
